ChEMBL document CHEMBL6092162, “Identification of novel and potent triazoles targeting CYP51 for antifungal: Design, synthesis, and biological study” (Eur J Med Chem, 2024)
Converted amounts (≈) assume the structure as drawn.

Columns and labels:
Format in all cases: functional
Pichia kudriavzevii = assay: Antifungal activity against Candida krusei GIM 2.1 assessed as inhibition of fungal growth by CLSI M27-A3 guidelines based method
Candida tropicalis = assay: Antifungal activity against Candida tropicalis GIM 2.183 assessed as inhibition of fungal growth by CLSI M27-A3 guidelines based method
Candida parapsilosis = assay: Antifungal activity against Candida parapsilosis GIM 2.190 assessed as inhibition of fungal growth by CLSI M27-A3 guidelines based method; details: Lodderomyces parapsilosis
Cryptococcus neoformans = assay: Antifungal activity against Cryptococcus neoformans CGMCC 2.3161 assessed as inhibition of fungal growth by CLSI M27-A3 guidelines based method
Nakaseomyces glabratus = assay: Antifungal activity against Candida glabrata assessed as inhibition of fungal growth by CLSI M27-A3 guidelines based method
Candida albicans [1] = assay: Antifungal activity against Candida albicans SC5314 assessed as inhibition of fungal growth by CLSI M27-A3 guidelines based method
Candida albicans [2] = assay: Antifungal activity against Candida albicans GIM 2.194 assessed as inhibition of fungal growth by CLSI M27-A3 guidelines based method

SMILES | MIC80 (Pichia kudriavzevii) | MIC80 (Candida tropicalis) | MIC80 (Candida parapsilosis) | MIC80 (Cryptococcus neoformans) | MIC80 (Nakaseomyces glabratus) | MIC80 (Candida albicans [1]) | MIC80 (Candida albicans [2])
CN1CCN(c2ccc(CN(C)CC(O)(Cn3cncn3)c3ccc(F)cc3F)cc2)CC1 (configuration not stated) | > 32 µg/mL | 4 µg/mL (≈ 8.76 µM) | 8 µg/mL (≈ 17.5 µM) | > 32 µg/mL | > 32 µg/mL | 8 µg/mL (≈ 17.5 µM) | 8 µg/mL (≈ 17.5 µM)
CN(Cc1ccc(N2CCN(Cc3cccc(F)c3)CC2)cc1)CC(O)(Cn1cncn1)c1ccc(F)cc1F (configuration not stated) | 0.4 µg/mL (≈ 0.726 µM) | 0.025 µg/mL (≈ 0.0454 µM) | 0.025 µg/mL (≈ 0.0454 µM) | 0.4 µg/mL (≈ 0.726 µM) | 1.6 µg/mL (≈ 2.91 µM) | 0.05 µg/mL (≈ 0.0908 µM) | 0.025 µg/mL (≈ 0.0454 µM)
CN(Cc1ccc(N2CCN(Cc3ccccc3Cl)CC2)cc1)CC(O)(Cn1cncn1)c1ccc(F)cc1F (configuration not stated) | 0.1 µg/mL (≈ 0.176 µM) | 0.013 µg/mL (≈ 0.0229 µM) | 0.006 µg/mL (≈ 0.0106 µM) | 0.1 µg/mL (≈ 0.176 µM) | 0.2 µg/mL (≈ 0.353 µM) | 0.025 µg/mL (≈ 0.0441 µM) | 0.006 µg/mL (≈ 0.0106 µM)
CN(Cc1ccc(N2CCN(Cc3ccc(Cl)cc3)CC2)cc1)CC(O)(Cn1cncn1)c1ccc(F)cc1F (configuration not stated) | 0.1 µg/mL (≈ 0.176 µM) | 0.05 µg/mL (≈ 0.0882 µM) | 0.1 µg/mL (≈ 0.176 µM) | 0.8 µg/mL (≈ 1.41 µM) | 0.8 µg/mL (≈ 1.41 µM) | 0.05 µg/mL (≈ 0.0882 µM) | 0.05 µg/mL (≈ 0.0882 µM)
COc1ccc(CN2CCN(c3ccc(CN(C)CC(O)(Cn4cncn4)c4ccc(F)cc4F)cc3)CC2)cc1 (configuration not stated) | 0.8 µg/mL (≈ 1.42 µM) | 0.2 µg/mL (≈ 0.355 µM) | 0.1 µg/mL (≈ 0.178 µM) | 0.8 µg/mL (≈ 1.42 µM) | 3.2 µg/mL (≈ 5.69 µM) | 0.5 µg/mL (≈ 0.889 µM) | 0.1 µg/mL (≈ 0.178 µM)
CC(=O)N1CCN(c2ccc(CN(C)CC(O)(Cn3cncn3)c3ccc(F)cc3F)cc2)CC1 (configuration not stated) | 16 µg/mL (≈ 33 µM) | 0.5 µg/mL (≈ 1.03 µM) | 0.1 µg/mL (≈ 0.206 µM) | 8 µg/mL (≈ 16.5 µM) | 16 µg/mL (≈ 33 µM) | 0.5 µg/mL (≈ 1.03 µM) | 0.1 µg/mL (≈ 0.206 µM)
CN(Cc1ccc(N2CCN(Cc3ccc(Br)cc3)CC2)cc1)CC(O)(Cn1cncn1)c1ccc(F)cc1F (configuration not stated) | 0.1 µg/mL (≈ 0.164 µM) | 0.025 µg/mL (≈ 0.0409 µM) | 0.05 µg/mL (≈ 0.0818 µM) | 0.2 µg/mL (≈ 0.327 µM) | 0.4 µg/mL (≈ 0.654 µM) | 0.025 µg/mL (≈ 0.0409 µM) | 0.025 µg/mL (≈ 0.0409 µM)
CN(Cc1ccc(N2CCN(Cc3ccc(N)cc3)CC2)cc1)CC(O)(Cn1cncn1)c1ccc(F)cc1F (configuration not stated) | 3.2 µg/mL (≈ 5.84 µM) | 1.6 µg/mL (≈ 2.92 µM) | 3.2 µg/mL (≈ 5.84 µM) | 3.2 µg/mL (≈ 5.84 µM) | 3.2 µg/mL (≈ 5.84 µM) | 1.6 µg/mL (≈ 2.92 µM) | 3.2 µg/mL (≈ 5.84 µM)
CN(Cc1ccc(N2CCN(Cc3cc(Cl)ccc3Br)CC2)cc1)CC(O)(Cn1cncn1)c1ccc(F)cc1F (configuration not stated) | 0.2 µg/mL (≈ 0.31 µM) | 0.006 µg/mL (≈ 0.00929 µM) | 0.006 µg/mL (≈ 0.00929 µM) | 0.1 µg/mL (≈ 0.155 µM) | 0.2 µg/mL (≈ 0.31 µM) | 0.013 µg/mL (≈ 0.0201 µM) | 0.013 µg/mL (≈ 0.0201 µM)
CCC(=O)N1CCN(c2ccc(CN(C)CC(O)(Cn3cncn3)c3ccc(F)cc3F)cc2)CC1 (configuration not stated) | 16 µg/mL (≈ 32.1 µM) | 0.5 µg/mL (≈ 1 µM) | 0.1 µg/mL (≈ 0.201 µM) | 8 µg/mL (≈ 16 µM) | 16 µg/mL (≈ 32.1 µM) | 0.25 µg/mL (≈ 0.501 µM) | 0.5 µg/mL (≈ 1 µM)
CN(Cc1ccc(N2CCN(Cc3ccc(C#N)cc3)CC2)cc1)CC(O)(Cn1cncn1)c1ccc(F)cc1F (configuration not stated) | 1.6 µg/mL (≈ 2.87 µM) | 0.05 µg/mL (≈ 0.0897 µM) | 0.1 µg/mL (≈ 0.179 µM) | 0.2 µg/mL (≈ 0.359 µM) | 1.6 µg/mL (≈ 2.87 µM) | 0.05 µg/mL (≈ 0.0897 µM) | 0.05 µg/mL (≈ 0.0897 µM)
CN(Cc1ccc(N2CCN(Cc3ccccc3I)CC2)cc1)CC(O)(Cn1cncn1)c1ccc(F)cc1F (configuration not stated) | 0.1 µg/mL (≈ 0.152 µM) | 0.013 µg/mL (≈ 0.0197 µM) | 0.025 µg/mL (≈ 0.038 µM) |  | 0.2 µg/mL (≈ 0.304 µM) | 0.013 µg/mL (≈ 0.0197 µM) | 0.013 µg/mL (≈ 0.0197 µM)
CN(Cc1ccc(N2CCN(C(=O)c3ccccc3)CC2)cc1)CC(O)(Cn1cncn1)c1ccc(F)cc1F (configuration not stated) | 1.6 µg/mL (≈ 2.93 µM) | 0.013 µg/mL (≈ 0.0238 µM) | 0.025 µg/mL (≈ 0.0457 µM) | 0.4 µg/mL (≈ 0.732 µM) | 1.6 µg/mL (≈ 2.93 µM) | 0.025 µg/mL (≈ 0.0457 µM) | 0.013 µg/mL (≈ 0.0238 µM)
CN(Cc1ccc(N2CCN(C(=O)C3CC3)CC2)cc1)CC(O)(Cn1cncn1)c1ccc(F)cc1F (configuration not stated) | 32 µg/mL (≈ 62.7 µM) | 1 µg/mL (≈ 1.96 µM) | 0.5 µg/mL (≈ 0.979 µM) | 16 µg/mL (≈ 31.3 µM) | 32 µg/mL (≈ 62.7 µM) | 0.25 µg/mL (≈ 0.49 µM) | 1 µg/mL (≈ 1.96 µM)
CN(Cc1ccc(N2CCN(Cc3ccccc3F)CC2)cc1)CC(O)(Cn1cncn1)c1ccc(F)cc1F (configuration not stated) | 0.1 µg/mL (≈ 0.182 µM) | 0.05 µg/mL (≈ 0.0908 µM) | 0.025 µg/mL (≈ 0.0454 µM) | 0.2 µg/mL (≈ 0.363 µM) | 0.4 µg/mL (≈ 0.726 µM) | 0.05 µg/mL (≈ 0.0908 µM) | 0.006 µg/mL (≈ 0.0109 µM)
CN(Cc1ccc(N2CCN(Cc3cccc(I)c3)CC2)cc1)CC(O)(Cn1cncn1)c1ccc(F)cc1F (configuration not stated) | 0.2 µg/mL (≈ 0.304 µM) | 0.013 µg/mL (≈ 0.0197 µM) | 0.025 µg/mL (≈ 0.038 µM) |  | 0.4 µg/mL (≈ 0.607 µM) | 0.25 µg/mL (≈ 0.38 µM) | 0.025 µg/mL (≈ 0.038 µM)
CC(C)C(=O)N1CCN(c2ccc(CN(C)CC(O)(Cn3cncn3)c3ccc(F)cc3F)cc2)CC1 (configuration not stated) | 16 µg/mL (≈ 31.2 µM) | 0.5 µg/mL (≈ 0.975 µM) | 0.25 µg/mL (≈ 0.488 µM) | 16 µg/mL (≈ 31.2 µM) | 16 µg/mL (≈ 31.2 µM) | 0.25 µg/mL (≈ 0.488 µM) | 1 µg/mL (≈ 1.95 µM)
